The test system of data set [1] is Staphylococcus aureus. The data set can be described thus: Antibacterial activity against erythromycin susceptible Staphylococcus aureus ATCC25923 by broth microdilution assay. The data set is classed as functional. For orientation: In broth dilution the organism is exposed to a series of concentrations in liquid medium.
Data set [2] in a line: Hemolytic activity in red blood cells (unknown origin). The format is toxicity, cell-based, Erythrocyte.
A short description of data set [3]: Selectivity index, ratio of HC50 for hemolytic activity in red blood cells (unknown origin) to MIC for antibacterial activity against penicillin-resistant Staphylococcus aureus ATCC43300. The format is toxicity, cell-based, RBC. To be noted: read-out: Selectivity Index.
Data set [4] has as its system Staphylococcus aureus. The data set can be described thus: Antibacterial activity against penicillin-resistant Staphylococcus aureus ATCC43300 by broth microdilution assay. The format is functional.
Data set [5] deals with Staphylococcus epidermidis. The data set can be described thus: Antibacterial activity against erythromycin-susceptible Staphylococcus epidermidis ATCC12228 by broth microdilution assay. The data set is classed as functional.
For data set [6], the system named is Staphylococcus aureus. The data set can be described thus: Antibacterial activity against penicillin-resistant Staphylococcus aureus ATCC31007 by broth microdilution assay. The data set is classed as functional.
A further data set has as its system Pseudomonas aeruginosa. The data set can be described thus: Antibacterial activity against penicillin-susceptible Pseudomonas aeruginosa ATCC27853 by broth microdilution method. The format is functional.
The next data set deals with Klebsiella pneumoniae. Nature of the data set: Antibacterial activity against Klebsiella pneumoniae ATCC10031 by broth microdilution assay. The format is functional.
The next data set relates to Escherichia coli. The data set can be described thus: Antibacterial activity against penicillin-susceptible Escherichia coli ATCC25922 by broth microdilution method. The data set is classed as functional.
A further data set concerns Acinetobacter baumannii. The data set can be described thus: Antibacterial activity against Acinetobacter baumannii ATCC19606 by broth microdilution assay. The data set is classed as functional.
Another data set has as its system Bacillus subtilis. The data set can be described thus: Antibacterial activity against penicillin-susceptible Bacillus subtilis ATCC9372 by broth microdilution assay. The data set is classed as functional.
For the next data set, the system named is Enterococcus faecalis. The data set can be described thus: Antibacterial activity against vancomycin susceptible Enterococcus faecalis ATCC29212 by broth microdilution assay. The data set is classed as functional.

The results in this text go back to ChEMBL document CHEMBL6092194, “Development of membrane-targeting chalcone derivatives as antibacterial agents against multidrug-resistant bacteria” (Eur J Med Chem, 2024).

What is called MIC is the lowest concentration that inhibits growth of the organism. Read a low MIC as a more susceptible organism. By HC50 is commonly meant the concentration that lyses half of the red blood cells.

On to `CCCCCC[N+](C)(C)CCCCCOc1ccc(C(=O)/C=C/c2ccccc2)cc1.[Br-]`, for which the MIC is 2 µg/mL with Staphylococcus aureus [1]; 16 µg/mL in the data set on Staphylococcus aureus [4]; 8 µg/mL in [5]; 16 µg/mL against Staphylococcus aureus [6]; more than 128 µg/mL with Pseudomonas aeruginosa; 32 µg/mL against Klebsiella pneumoniae. Besides, the MIC was more than 128 µg/mL in the data set on Escherichia coli, 64 µg/mL in the data set on Acinetobacter baumannii, 8 µg/mL with Bacillus subtilis and 16 µg/mL against Enterococcus faecalis. In data set [2], this molecule registered an HC50 of 112 µg/mL. Besides, the selectivity ratio in data set [3] amounted to 7.

For `CCCCCCCCCC[N+](C)(C)CCCCCOc1ccc(C(=O)/C=C/c2ccccc2)cc1.[Br-]`, the minimal inhibitory concentration (MIC) with Staphylococcus aureus [1] was 4 µg/mL; with Staphylococcus aureus [4] it was 4 µg/mL; in data set [5] it was 8 µg/mL; in the data set on Staphylococcus aureus [6], 4 µg/mL; against Pseudomonas aeruginosa, more than 128 µg/mL; against Klebsiella pneumoniae, 16 µg/mL. The MIC against Escherichia coli came to 64 µg/mL; in the data set on Acinetobacter baumannii, 16 µg/mL; against Bacillus subtilis it was 4 µg/mL; with Enterococcus faecalis, 4 µg/mL. Also, in data set [2], the concentration for 50% haemolysis (HC50) worked out at 42 µg/mL. Further, the selectivity ratio in [3] stood at 10.5.

As for `CCCCCCCCCCCCCC[N+](C)(C)CCCOc1ccc(/C=C/C(=O)c2ccc(OCCC[N+](C)(C)CCCCCCCCCCCCCC)cc2)cc1.[Br-].[Br-]`, the MIC was 64 µg/mL against Staphylococcus aureus [1]; 128 µg/mL with Staphylococcus aureus [4]; more than 128 µg/mL in data set [5]; 64 µg/mL with Staphylococcus aureus [6]; more than 128 µg/mL in the data set on Pseudomonas aeruginosa; 128 µg/mL with Klebsiella pneumoniae. Besides, the MIC was more than 128 µg/mL in the data set on Escherichia coli, 128 µg/mL with Acinetobacter baumannii, more than 128 µg/mL in the data set with Bacillus subtilis and more than 128 µg/mL against Enterococcus faecalis. The same molecule registered a concentration for 50% haemolysis (HC50) in data set [2] of 28.4 µg/mL. For the same molecule, the selectivity ratio in data set [3] was determined as 0.2.

In the case of `CC(C)=CC(=O)Nc1cc[n+](CCCOc2ccc(C(=O)/C=C/c3ccccc3)cc2)cc1.[Br-]`, the MIC (against Staphylococcus aureus [1]; against Staphylococcus aureus [4]; in [5]; with Staphylococcus aureus [6]; in the data set on Pseudomonas aeruginosa; in the data set with Klebsiella pneumoniae) was more than 128 µg/mL in each case. The MIC in the data set on Escherichia coli, with Acinetobacter baumannii, in the data set with Bacillus subtilis and in the data set on Enterococcus faecalis was more than 128 µg/mL each time. The molecule also registered an HC50 in data set [2] of more than 1280 µg/mL. Besides, the selectivity ratio in data set [3] is more than 10.

In the case of `CCCCCCCCCC[N+](C)(C)CCCOc1ccc(C(=O)/C=C/c2ccccc2)cc1.[Br-]`, the MIC in the data set on Staphylococcus aureus [1] was 8 µg/mL; in the data set on Staphylococcus aureus [4], 4 µg/mL; in data set [5], 16 µg/mL; with Staphylococcus aureus [6], 4 µg/mL; against Pseudomonas aeruginosa, more than 128 µg/mL; in the data set with Klebsiella pneumoniae, 128 µg/mL. The MIC was more than 128 µg/mL against Escherichia coli, more than 128 µg/mL in the data set on Acinetobacter baumannii, 8 µg/mL against Bacillus subtilis and 64 µg/mL in the data set on Enterococcus faecalis. This molecule also gave an HC50 in data set [2] of 756 µg/mL. For the same molecule, the selectivity ratio in data set [3] was 189.

For `CCCCCCCCCC(=O)Nc1cc[n+](CCCOc2ccc(C(=O)/C=C/c3ccccc3)cc2)cc1.[Br-]`, the MIC with Staphylococcus aureus [1] is 4 µg/mL; against Staphylococcus aureus [4], 4 µg/mL; in data set [5], 16 µg/mL; with Staphylococcus aureus [6] it was 4 µg/mL; with Pseudomonas aeruginosa it was more than 128 µg/mL; with Klebsiella pneumoniae, more than 128 µg/mL. The MIC against Escherichia coli came out at 32 µg/mL; in the data set with Acinetobacter baumannii, 64 µg/mL; in the data set with Bacillus subtilis, 2 µg/mL; against Enterococcus faecalis, 8 µg/mL. The concentration for 50% haemolysis (HC50) in data set [2] amounted to 871 µg/mL. In data set [3], the selectivity ratio stood at 218.

Regarding `CCCCCCCCCC[N+](C)(C)CCCCCCCOc1ccc(C(=O)/C=C/c2ccccc2)cc1.[Br-]`, the MIC was 4 µg/mL in the data set on Staphylococcus aureus [1]; 4 µg/mL in the data set with Staphylococcus aureus [4]; 4 µg/mL in [5]; 8 µg/mL with Staphylococcus aureus [6]; more than 128 µg/mL against Pseudomonas aeruginosa; 32 µg/mL against Klebsiella pneumoniae. Moreover, the MIC was more than 128 µg/mL in the data set with Escherichia coli, 128 µg/mL against Acinetobacter baumannii, 4 µg/mL in the data set on Bacillus subtilis and 8 µg/mL in the data set with Enterococcus faecalis. In [2], the HC50 was 50.5 µg/mL. The selectivity ratio in data set [3] came out at 12.6.
